Each structure is given as a SMILES string.

This passage reports IC50 and EC50 results from patent US20090155209A1, “NOVEL MACROCYCLIC INHIBITORS OF HEPATITIS C VIRUS REPLICATION” (priority 2007, published 2009).

The target in test [1] is T1, NS3-NS4 (Hepatitis C virus genotype 1a, UniProt P27958). In words: NS3-NS4 activity, IC50 (Example 37, Table 8). The class given is biochemical.
The target in test [2] is T1, NS3-NS4. The test is described as follows: cell-based. The note with it: EC50, NS3-NS4 activity.

T1 sequence (P27958 1027-1657): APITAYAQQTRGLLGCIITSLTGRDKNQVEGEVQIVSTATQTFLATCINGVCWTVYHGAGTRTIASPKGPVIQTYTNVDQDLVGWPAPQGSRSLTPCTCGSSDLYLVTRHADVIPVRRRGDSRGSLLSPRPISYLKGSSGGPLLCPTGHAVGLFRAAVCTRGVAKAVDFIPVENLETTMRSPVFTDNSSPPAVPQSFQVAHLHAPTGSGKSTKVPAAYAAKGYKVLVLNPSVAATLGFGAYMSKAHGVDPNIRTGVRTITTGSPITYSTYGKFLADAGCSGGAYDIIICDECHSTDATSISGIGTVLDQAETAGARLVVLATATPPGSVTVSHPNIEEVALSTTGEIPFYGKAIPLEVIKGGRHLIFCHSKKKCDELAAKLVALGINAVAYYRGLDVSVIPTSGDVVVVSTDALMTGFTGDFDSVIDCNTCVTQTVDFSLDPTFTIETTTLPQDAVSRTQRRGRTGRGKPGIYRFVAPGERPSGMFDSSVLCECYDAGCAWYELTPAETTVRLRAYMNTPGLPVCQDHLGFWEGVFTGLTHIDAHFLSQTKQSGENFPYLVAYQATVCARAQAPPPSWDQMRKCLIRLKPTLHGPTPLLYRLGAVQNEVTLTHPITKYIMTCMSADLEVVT
T1 sequence (P27958 1658-1711): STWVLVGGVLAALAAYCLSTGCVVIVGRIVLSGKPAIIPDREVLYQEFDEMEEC

On to `CCC(C)(C)OC(=O)N[C@H]1CCCCC/C=C\[C@@H]2C[C@@]2(C(=O)NS(=O)(=O)c2ccccc2C)NC(=O)[C@@H]2C[C@@H](OC(=O)N3Cc4cccc(F)c4C3)CN2C1=O` [Compound 337], for which the IC50 on NS3-NS4 [1] was less than 100 nM. The same compound registered an EC50 at NS3-NS4 [2] of less than 100 nM.
As for `CC(C)CONC(=O)[C@@]12C[C@H]1/C=C\CCCCC[C@H](NC(=O)OC(C)(C)C)C(=O)N1C[C@H](OC(=O)N3Cc4cccc(F)c4C3)C[C@H]1C(=O)N2` [Compound 719], on NS3-NS4 [1], the IC50 is less than 100 nM. Also, the concentration giving a half-maximal response (EC50) at NS3-NS4 [2] was less than 100 nM.
As for `O=C1N[C@]2(C(=O)NS(=O)(=O)C3CC3)C[C@H]2/C=C\CCCCC[C@H](Nc2nc(-c3ccc(F)cc3)cs2)C(=O)N2C[C@H](OC(=O)N3CCc4ccccc4C3)C[C@@H]12` [Compound 232], the IC50 on NS3-NS4 [1] was less than 100 nM. The EC50 on NS3-NS4 [2] is less than 100 nM.
As for `CC(C)(C)OC(=O)N[C@H]1CCCCC/C=C\[C@@H]2C[C@@]2(C(=O)NS(=O)(=O)Cc2ccc(C(F)(F)F)cc2)NC(=O)[C@@H]2C[C@@H](OC(=O)N3Cc4cccc(F)c4C3)CN2C1=O` [Compound 519], the IC50 at NS3-NS4 [1] was less than 100 nM. Moreover, on NS3-NS4 [2], the EC50 lay in the range of 100 to 1000 nM.
The compound `CC(C)Oc1ccc(S(=O)(=O)NC(=O)[C@@]23C[C@H]2/C=C\CCCCC[C@H](NC(=O)OC(C)(C)C)C(=O)N2C[C@H](OC(=O)N4Cc5cccc(F)c5C4)C[C@H]2C(=O)N3)cc1` [Compound 356] had an IC50 against NS3-NS4 [1] of less than 100 nM. For the same compound, the EC50 on NS3-NS4 [2] is less than 100 nM.
As for `CC(C)(C)COC(=O)N[C@H]1CCCCC/C=C\[C@@H]2C[C@@]2(C(=O)NS(=O)(=O)c2ccc(Cl)cc2)NC(=O)[C@@H]2C[C@@H](OC(=O)N3Cc4cccc(F)c4C3)CN2C1=O` [Compound 340], the IC50 against NS3-NS4 [1] was less than 100 nM. The EC50 on NS3-NS4 [2] was less than 100 nM.
`C=CCC1(S(=O)(=O)NC(=O)[C@@]23C[C@H]2CCCCCCC[C@H](NC(=O)OC(C)(C)C)C(=O)N2C[C@H](OC(=O)N4Cc5cccc(F)c5C4)C[C@H]2C(=O)N3)CC1` [Compound 649] came in with an IC50 against NS3-NS4 [1] of less than 100 nM. The EC50 on NS3-NS4 [2] was less than 100 nM.
On NS3-NS4 [1], `CC(C)(C)OC(=O)N[C@H]1CCCCC/C=C\[C@@H]2C[C@@]2(C(=O)NS(=O)(=O)c2cc(Cl)ccc2F)NC(=O)[C@@H]2C[C@@H](OC(=O)N3Cc4cccc(F)c4C3)CN2C1=O` [Compound 314] came in with an IC50 of less than 100 nM. At NS3-NS4 [2], the EC50 was less than 100 nM.
For `CC(C)(C)OC(=O)N[C@H]1CCCCC/C=C\[C@@H]2C[C@@]2(C(=O)NS(=O)(=O)c2ccc(C(F)(F)F)cc2)NC(=O)[C@@H]2C[C@@H](OC(=O)N3Cc4cccc(F)c4C3)CN2C1=O` [Compound 347], the IC50 on NS3-NS4 [1] was less than 100 nM. On NS3-NS4 [2], the EC50 is less than 100 nM.
Consider `CC(C)COC(=O)N[C@H]1CCCCC/C=C\[C@@H]2C[C@@]2(C(=O)NS(=O)(=O)c2cc(Cl)sc2Cl)NC(=O)[C@@H]2C[C@@H](OC(=O)N3Cc4cccc(F)c4C3)CN2C1=O` [Compound 342], for which the IC50 on NS3-NS4 [1] was less than 100 nM. In addition, the EC50 on NS3-NS4 [2] was less than 100 nM.
With `CC(C)(C)OC(=O)N[C@H]1CCCCC/C=C\[C@@H]2C[C@@]2(C(=O)NOc2ccc(Cl)cc2)NC(=O)[C@@H]2C[C@@H](OC(=O)N3Cc4cccc(F)c4C3)CN2C1=O` [Compound 707], on NS3-NS4 [1], the IC50 is less than 100 nM. The compound further displayed an EC50 at NS3-NS4 [2] of 1000 to 10000 nM.
For `CN(C(=O)N[C@H]1CCCCC/C=C\[C@@H]2C[C@@]2(C(=O)NS(=O)(=O)c2c(F)cccc2F)NC(=O)[C@@H]2C[C@@H](OC(=O)N3Cc4cccc(F)c4C3)CN2C1=O)C(C)(C)C` [Compound 362], in that order: less than 100 nM and 100 to 1000 nM.
At NS3-NS4 [1], `O=C1N[C@]2(C(=O)NS(=O)(=O)C3CC3)C[C@H]2/C=C\CCCCC[C@H](Nc2nc(-c3ccc(F)cn3)cs2)C(=O)N2C[C@H](OC(=O)N3CCc4ccccc4C3)C[C@@H]12` [Compound 229] gave an IC50 of less than 100 nM. The EC50 on NS3-NS4 [2] was less than 100 nM.
For `O=C1N[C@]2(C(=O)NS(=O)(=O)C3CC3)C[C@H]2/C=C\CCCCC[C@H](Nc2nc3c(s2)CCC3)C(=O)N2C[C@H](OC(=O)N3Cc4cccc(F)c4C3)C[C@@H]12` [Compound 206], at NS3-NS4 [1], the 50% inhibitory concentration (IC50) is less than 100 nM. At NS3-NS4 [2], this compound returned an EC50 of 100 to 1000 nM.
For `CC(C)(C)OC(=O)N[C@H]1CCCCC/C=C\[C@@H]2C[C@@]2(C(=O)NOc2cccc(F)c2)NC(=O)[C@@H]2C[C@@H](OC(=O)N3Cc4cccc(F)c4C3)CN2C1=O` [Compound 704], in that order: less than 100 nM and 1000 to 10000 nM.
The compound `CC1(OC(=O)N[C@H]2CCCCC/C=C\[C@@H]3C[C@@]3(C(=O)NS(=O)(=O)C3CC3)NC(=O)[C@@H]3C[C@@H](OC(=O)N4Cc5cccc(F)c5C4)CN3C2=O)CC1` [Compound 404, (2R,6S,13aS,14aR,16aS,Z)-14a-(cyclopropylsulfonylcarbamoyl)-6-((1-methylcyclopropoxy)carbonylamino)-5,16-dioxo-1,2,3,5,6,7,8,9,10,11,13a,14,14a,15,16,16a-hexadecahydrocyclopropa[e]pyrrolo[1,2-a][1,4]diazacyclopentadecin-2-yl 4-fluoroisoindoline-2-carboxylate] registered an IC50 against NS3-NS4 [1] of less than 100 nM. At NS3-NS4 [2], this compound showed an EC50 of less than 100 nM.
Take `O=C1N[C@]2(C(=O)NS(=O)(=O)C3CC3)C[C@H]2/C=C\CCCCC[C@H](Nc2nc(-c3ccccn3)cs2)C(=O)N2C[C@H](OC(=O)N3Cc4cccc(F)c4C3)C[C@@H]12` [Compound 212]: at NS3-NS4 [1], the IC50 was less than 100 nM. Besides, the EC50 on NS3-NS4 [2] is less than 100 nM.
For the compound `CN(C(=O)N[C@H]1CCCCC/C=C\[C@@H]2C[C@@]2(C(=O)NS(=O)(=O)c2ccc(Cl)cc2)NC(=O)[C@@H]2C[C@@H](OC(=O)N3Cc4cccc(F)c4C3)CN2C1=O)C(C)(C)C` [Compound 361], on NS3-NS4 [1], the IC50 was less than 100 nM. The EC50 at NS3-NS4 [2] was less than 100 nM.
The compound `CC(C)(C)OC(=O)N[C@H]1CCCCCCC[C@@H]2C[C@@]2(C(=O)NS(=O)(=O)c2ccccc2C(F)(F)F)NC(=O)[C@@H]2C[C@@H](OC(=O)N3Cc4cccc(F)c4C3)CN2C1=O` [Compound 605] had an IC50 against NS3-NS4 [1] of less than 100 nM. The EC50 on NS3-NS4 [2] is less than 100 nM.
For the compound `O=C1N[C@]2(C(=O)NS(=O)(=O)C3CC3)C[C@H]2/C=C\CCCCC[C@H](Nc2nc(-c3ccccc3Cl)cs2)C(=O)N2C[C@H](OC(=O)N3Cc4cccc(F)c4C3)C[C@@H]12` [Compound 209], the IC50 against NS3-NS4 [1] is less than 100 nM. Further, the EC50 on NS3-NS4 [2] is less than 100 nM.
Regarding `CC(C)(C)OC(=O)N[C@H]1CCCCC/C=C\[C@@H]2C[C@@]2(C(=O)NOCc2ccc(C(F)(F)F)cc2)NC(=O)[C@@H]2C[C@@H](OC(=O)N3Cc4cccc(F)c4C3)CN2C1=O` [Compound 105, (2R,6S,13aS,14aR,16aS,Z)-6-(tert-butoxycarbonylamino)-5,16-dioxo-14a-(4-(trifluoromethyl)benzyloxycarbamoyl)-1,2,3,5,6,7,8,9,10,11,13a,14,14a,15,16,16a-hexadecahydrocyclopropa[e]pyrrolo[1,2-a][1,4]diazacyclopentadecin-2-yl 4-fluoroisoindoline-2-carboxylate], the IC50 against NS3-NS4 [1] was less than 100 nM. This compound also showed an EC50 at NS3-NS4 [2] of 10000 to 50000 nM.
For `CC(C)(C)OC(=O)N[C@H]1CCCCC/C=C\[C@@H]2C[C@@]2(C(=O)NS(=O)(=O)Cc2ccccc2F)NC(=O)[C@@H]2C[C@@H](OC(=O)N3Cc4cccc(F)c4C3)CN2C1=O` [Compound 507], in that order: less than 100 nM and less than 100 nM.
`O=C(N[C@H]1CCCCC/C=C\[C@@H]2C[C@@]2(C(=O)NS(=O)(=O)C2CC2)NC(=O)[C@@H]2C[C@@H](OC(=O)N3Cc4cccc(F)c4C3)CN2C1=O)c1ccc(Cl)cc1` [Compound 413] showed an IC50 against NS3-NS4 [1] of less than 100 nM. The compound also showed an EC50 at NS3-NS4 [2] of less than 100 nM.
On NS3-NS4 [1], `CCN(C(=O)N[C@H]1CCCCC/C=C\[C@@H]2C[C@@]2(C(=O)NS(=O)(=O)C2CC2)NC(=O)[C@@H]2C[C@@H](OC(=O)N3Cc4cccc(F)c4C3)CN2C1=O)C(C)(C)C` [Compound 423] registered an IC50 of less than 100 nM. The EC50 at NS3-NS4 [2] is less than 100 nM.
On to `CC(C)(C)OC(=O)N[C@H]1CCCCC/C=C\C2CC2(C(=O)NOc2ccccc2)NC(=O)[C@@H]2C[C@@H](OC(=O)N3Cc4cccc(F)c4C3)CN2C1=O` (stereo in doubt) [Compound 101, (2R,6S,13aS,14aR,16aS,Z)-6-(tert-butoxycarbonylamino)-5,16-dioxo-14a-(phenoxycarbamoyl)-1,2,3,5,6,7,8,9,10,11,13a,14,14a,15,16,16a-hexadecahydrocyclopropa[e]pyrrolo[1,2-a][1,4]diazacyclopentadecin-2-yl 4-fluoroisoindoline-2-carboxylate], for which the IC50 against NS3-NS4 [1] was less than 100 nM. Besides, the EC50 at NS3-NS4 [2] is less than 100 nM.
As to `O=C1N[C@]2(C(=O)NS(=O)(=O)C3CC3)C[C@H]2/C=C\CCCCC[C@H](Nc2nc(-c3ccc(OC(F)(F)F)cc3)cs2)C(=O)N2C[C@H](OC(=O)N3Cc4cccc(F)c4C3)C[C@@H]12` [Compound 222], the IC50 against NS3-NS4 [1] is less than 100 nM. The compound also showed an EC50 at NS3-NS4 [2] of less than 100 nM.
In the case of `CC(C)(C)OC(=O)N[C@H]1CCCCC/C=C\[C@@H]2C[C@@]2(C(=O)NS(=O)(=O)c2ccc(Cl)cc2Cl)NC(=O)[C@@H]2C[C@@H](OC(=O)N3Cc4cccc(F)c4C3)CN2C1=O` [Compound 348], the IC50 at NS3-NS4 [1] is less than 100 nM. The same compound displayed an EC50 at NS3-NS4 [2] of less than 100 nM.
Take `O=C1N[C@]2(C(=O)NS(=O)(=O)C3CC3)C[C@H]2/C=C\CCC(F)(F)CC[C@H](NC(=O)C2(C(F)(F)F)CC2)C(=O)N2C[C@H](OC(=O)N3Cc4cccc(F)c4C3)C[C@@H]12` [Compound 408]: the IC50 against NS3-NS4 [1] is less than 100 nM. Further, the EC50 at NS3-NS4 [2] is less than 100 nM.
For the compound `Cc1csc(S(=O)(=O)NC(=O)[C@@]23C[C@H]2CCCCCCC[C@H](NC(=O)OC(C)(C)C)C(=O)N2C[C@H](OC(=O)N4Cc5cccc(F)c5C4)C[C@H]2C(=O)N3)c1` [Compound 645], at NS3-NS4 [1], the IC50 is less than 100 nM. Besides, on NS3-NS4 [2], the EC50 is less than 100 nM.
`Cc1cccc(ONC(=O)[C@@]23C[C@H]2/C=C\CCCCC[C@H](NC(=O)OC(C)(C)C)C(=O)N2C[C@H](OC(=O)N4Cc5cccc(F)c5C4)C[C@H]2C(=O)N3)c1` [Compound 702] registered an IC50 at NS3-NS4 [1] of less than 100 nM. Moreover, the EC50 at NS3-NS4 [2] is 1000 to 10000 nM.
In the case of `COc1csc(S(=O)(=O)NC(=O)[C@@]23C[C@H]2/C=C\CCCCC[C@H](NC(=O)OC(C)(C)C)C(=O)N2C[C@H](OC(=O)N4Cc5cccc(F)c5C4)C[C@H]2C(=O)N3)c1` [Compound 541], the IC50 on NS3-NS4 [1] was less than 100 nM. The EC50 on NS3-NS4 [2] is less than 100 nM.

One may read the IC50 as the point on the concentration scale where inhibition reaches its midpoint. Higher therefore signals weaker potency in that assay. For orientation: EC50 means the midpoint of the concentration-response curve. High values mean weaker potency, low ones greater potency.
